Test results taken from ChEMBL document CHEMBL5528066, “Discovery of Novel N-(Anthracen-9-ylmethyl) Benzamide Derivatives as ZNF207 Inhibitors Promising in Treating Glioma” (J Med Chem, 2024).
Activity calls are given as the source filed them. The rule behind the calls is not given here.

Experiments:
[1] = Toxicity in female C57BL/6 mouse assessed as change in cellular structure of stomach at 45 mg/kg, po administered once a day for 2 weeks by H and E staining based analysis; assay type: organism-based; details: in vivo, 336 h
U-251 [2] = test: Antiproliferative activity against human U-251MG cells assessed as inhibition of cell growth measured after 72 hrs by CCK-8 assay; assay type: functional, cell-based; details: U-251, 72 h
Hs 683 [3] = test: Inhibition of sphere formation in human Hs 683 cells at 8 uM measured after 10 days in well containing 100 cells by microscopic analysis; assay type: functional, cell-based; details: time 10.0 day
Hs 683 [4] = test: Inhibition of sphere formation in human Hs 683 cells assessed as fold reduction in sphere initiating frequency at 2 uM incubated for 10 days by microscopic analysis relative to control; assay type: functional; details: time 10 day
LN-229 [5] = test: Antitumor activity against human LN-229 cells xenografted in BALB/c nude mouse assessed as tumor growth delay by measuring tumor volume at 45 mg/kg, po administered once a day and measured every 2 days for 49 days (reference value: 700 […]); assay type: functional; details: time 49 day
[6] = Toxicity in female C57BL/6 mouse assessed as change in cellular structure of heart at 45 mg/kg, po administered once a day for 2 weeks by H and E staining based analysis; assay type: organism-based; details: in vivo, 336 h
U-251 [7] = test: Inhibition of colony formation in human U-251MG cells assessed as reduction in number of cell clones treated on day 1 and measured after 14 days by crystal violet staining based microscopic analysis; assay type: functional; details: dose 0.625-5 µM, time 14.0 day
[8] = Toxicity in female C57BL/6 mouse assessed as change in cellular structure of spleen at 45 mg/kg, po administered once a day for 2 weeks by H and E staining based analysis; assay type: organism-based; details: in vivo, 336 h
LN-229 [9] = test: Inhibition of sphere formation in human LN-229 cells at 4 uM measured after 10 days in well containing 10000 cells by microscopic analysis; assay type: functional, cell-based; details: time 10.0 day
U-251 [10] = test: Inhibition of sphere formation in human U-251MG cells assessed as fold reduction in sphere initiating frequency at 4 uM incubated for 10 days by microscopic analysis relative to control; assay type: functional; details: time 10 day
H4 [11] = test: Inhibition of sphere formation in human H4 cells at 2 uM measured after 10 days in well containing 10000 cells by microscopic analysis; assay type: functional, cell-based; details: time 10.0 day
LN-229 [12] = test: Antitumor activity against human LN-229 cells xenografted in BALB/c nude mouse assessed as reduction in proportion of p-H3 positive cells at 15 to 45 mg/kg, po administered once a day and measured after 49 days by immunohistochemistry analysis; assay type: functional, organism-based; details: dose 15-45 mg/kg, time 49.0 day
LN-229-Luc [13] = test: Antitumor activity against human Ln-229-Luc cells xenografted in BALB/c nude mouse assessed as reduction in tumor load at 45 mg/kg, po administered once a day and measured on day 25 by bioluminescence imaging analysis relative to control; assay type: functional; details: time 25 day
Hs 683 [14] = test: Induction of apoptosis in human Hs 683 cells assessed as apoptotic cells at 2.5 uM incubated for 24 hrs by Annexin V-FITC/PI staining based flow cytometry analysis relative to control; assay type: functional
[15] = Toxicity in male C57BL/6 mouse assessed as change in cellular structure of brain at 45 mg/kg, po administered once a day for 2 weeks by H and E staining based analysis; assay type: organism-based; details: in vivo, 336 h
H4 [16] = test: Inhibition of sphere formation in human H4 cells at 4 uM measured after 10 days in well containing 1 cells by microscopic analysis; assay type: functional, cell-based; details: time 10.0 day
[17] = Toxicity in female C57BL/6 mouse assessed as change in cellular structure of kidney at 45 mg/kg, po administered once a day for 2 weeks by H and E staining based analysis; assay type: organism-based; details: in vivo, 336 h
[18] = Toxicity in male C57BL/6 mouse assessed as change in cellular structure of thymus at 45 mg/kg, po administered once a day for 2 weeks by H and E staining based analysis; assay type: organism-based; details: in vivo, 336 h
H4 [19] = test: Inhibition of sphere formation in human H4 cells at 2 uM measured after 10 days in well containing 10 cells by microscopic analysis; assay type: functional, cell-based; details: time 10.0 day
U-251 [20] = test: Induction of apoptosis in human U-251MG cells at 1.25 uM incubated for 24 hrs by Annexin V-FITC/PI staining based flow cytometry analysis; assay type: functional, cell-based
LN-229 [21] = test: Inhibition of colony formation in human LN-229 cells assessed as reduction in colony area at 2.5 uM treated on day 1 and measured after 14 days by crystal violet staining based microscopic analysis relative to control; assay type: functional; details: LN-229, 336 h, time 14 day
H4 [22] = test: Inhibition of sphere formation in human H4 cells incubated for 168 hrs by microscopic analysis; assay type: functional, cell-based; details: H4, 168 h
[23] = target: BUB3-interacting and GLEBS motif-containing protein ZNF207 (Homo sapiens, UniProt O43670); test: Binding affinity to human ZNF207 assessed as dissociation constant by SPR analysis
LN-229 [24] = test: Antitumor activity against human LN-229 cells xenografted in BALB/c nude mouse assessed as reduction in proportion of Ki-67 positive cells at 15 to 45 mg/kg, po administered once a day and measured after 49 days by immunohistochemistry analysis; assay type: functional, organism-based; details: dose 15-45 mg/kg, time 49.0 day
Hs 683 [25] = test: Inhibition of colony formation in human Hs 683 cells assessed as reduction in number of cell clones treated on day 1 and measured after 14 days by crystal violet staining based microscopic analysis; assay type: functional; details: dose 0.625-5 µM, time 14.0 day
LN-229-Luc [26] = test: Antitumor activity against human Ln-229-Luc cells xenografted in po dosed BALB/c nude mouse administered once a day and measured after 3 to 31 days; assay type: functional, organism-based; details: dose 15-45 mg/kg, time 3-31 day
U-251 [27] = test: Inhibition of sphere formation in human U-251MG cells at 4 uM measured after 10 days in well containing 10 cells by microscopic analysis; assay type: functional, cell-based; details: time 10.0 day
[28] = Toxicity in male C57BL/6 mouse assessed as change in cellular structure of intestine at 45 mg/kg, po administered once a day for 2 weeks by H and E staining based analysis; assay type: organism-based; details: in vivo, 336 h
[29] = Drug concentration in female Sprague-Dawley rat lung at 45 mg/kg, po measured after 8 hrs by LC-MS/MS analysis; assay type: ADME, organism-based; details: read-out: Ct
LN-229 [30] = test: Inhibition of sphere formation in human LN-229 cells at 2 uM measured after 10 days in well containing 10 cells by microscopic analysis; assay type: functional, cell-based; details: time 10.0 day
U-251 [31] = test: Inhibition of sphere formation in human U-251MG cells incubated for 168 hrs by microscopic analysis; assay type: functional, cell-based; details: U-251, 168 h
LN-229 [32] = test: Inhibition of cell migration in human LN-229 cells assessed as reduction in wound closure ability at 5 uM measured after 48 hrs by wound healing assay relative to control; assay type: functional
H4 [33] = test: Inhibition of sphere formation in human H4 cells at 8 uM measured after 10 days in well containing 100 cells by microscopic analysis; assay type: functional, cell-based; details: time 10.0 day
Hs 683 [34] = test: Inhibition of sphere formation in human Hs 683 cells at 4 uM measured after 10 days in well containing 1 cells by microscopic analysis; assay type: functional, cell-based; details: time 10.0 day
Hs 683 [35] = test: Inhibition of sphere formation in human Hs 683 cells at 4 uM measured after 10 days in well containing 10 cells by microscopic analysis; assay type: functional, cell-based; details: time 10.0 day
LN-229 [36] = test: Inhibition of sphere formation in human LN-229 cells at 1 uM measured after 10 days in well containing 1 cells by microscopic analysis; assay type: functional, cell-based; details: time 10.0 day

BUB3-interacting and GLEBS motif-containing protein ZNF207, sequence (O43670 whole entry): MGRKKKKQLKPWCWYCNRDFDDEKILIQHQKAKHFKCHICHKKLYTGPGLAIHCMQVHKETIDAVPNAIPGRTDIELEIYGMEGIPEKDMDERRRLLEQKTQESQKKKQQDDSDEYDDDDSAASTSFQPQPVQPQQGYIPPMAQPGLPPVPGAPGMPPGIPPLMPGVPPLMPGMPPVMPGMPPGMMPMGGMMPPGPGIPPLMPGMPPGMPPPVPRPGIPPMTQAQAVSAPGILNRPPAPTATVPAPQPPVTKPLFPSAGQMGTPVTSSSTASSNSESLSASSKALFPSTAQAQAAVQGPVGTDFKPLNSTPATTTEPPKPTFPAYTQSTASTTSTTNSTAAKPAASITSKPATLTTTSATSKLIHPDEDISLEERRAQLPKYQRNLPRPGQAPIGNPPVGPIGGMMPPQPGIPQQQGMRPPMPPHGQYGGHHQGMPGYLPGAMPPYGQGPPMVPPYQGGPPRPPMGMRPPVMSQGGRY

IC50 (U-251 [2]): 13100 nM | IC50 (H4 [22]): 740 nM | Kd [23]: 67 nM | concentration at 8 h [29]: 6360 ng/g | IC50 (U-251 [31]): 870 nM
SMILES: N#CC1(C(=O)NCCC2CCN(Cc3ccccc3)CC2)CC2(Br)c3ccccc3C1c1ccccc12 (racemic)
Activity [1]: Non-Toxic | inhibition (Hs 683 [3]): Active | fold change (FC) (Hs 683 [4]): 15.75 | Activity (LN-229 [5]): 200 mm3 | Activity [6]: Non-Toxic | inhibition (U-251 [7]): Dose-Dependent Effect | Activity [8]: Non-Toxic | inhibition (LN-229 [9]): inactive | fold change (FC) (U-251 [10]): 78.18 | inhibition (H4 [11]): inactive | Activity (LN-229 [12]): Active | fold change (FC) (LN-229-Luc [13]): 7.6 | Activity (Hs 683 [14]): ~20% | Activity [15]: Non-Toxic | inhibition (H4 [16]): Active | Activity [17]: Non-Toxic | Activity [18]: Non-Toxic | inhibition (H4 [19]): Active | Activity (U-251 [20]): Active | inhibition at 2.5 µM (LN-229 [21]): 100% | Activity (LN-229 [24]): Active | inhibition (Hs 683 [25]): Dose-Dependent Effect | Activity (LN-229-Luc [26]): Dose-Dependent Effect | inhibition (U-251 [27]): Active | Activity [28]: Non-Toxic | inhibition (LN-229 [30]): Active | inhibition at 5 µM (LN-229 [32]): 28.4% | inhibition (H4 [33]): Active | inhibition (Hs 683 [34]): Active | inhibition (Hs 683 [35]): Active | inhibition (LN-229 [36]): Active
